Test results taken from patent publication US12414980B2, “Pharmaceutical composition comprising RUNX3 protein and CDK4 inhibitor or mTOR inhibitor cotreatment for prevention or treatment of cancer” (GeneCraft Inc., priority 2020, dated 2025).

How the values were obtained:
Runx3-BRD2 complex = Runx3-BRD2 complex formation after serum stimulation, immunoprecipitation (IP) and immunoblotting (IB); assay type: cell-based; details: for time for which the binding of Runx3 and BRD2 was maintained: after serum stimulation
normal cells = details: cited from earlier work
[1] = system: H460 lung cancer cell line; details: administered simultaneously with adenovirus expressing Runx3 protein, FIG. 8
Description: H460 cells (ATCC, Manassas, VA, USA) and H460 stable cells were maintained in RPMI 1640 medium (Gibco BRL) supplemented with 10% fetal bovine serum (Gibco BRL) and 1% penicillin/streptomycin (Invitrogen). All the cell lines were cultured in a 37° C., 5% CO2 incubator.
(§1) Cells were harvested and processed using FITC-Annexin V Apoptosis Detection Kit I (BD Biosciences, San Jose, CA, USA) and propidium iodide DNA staining protocol. Apoptosis and cell cycle were analyzed by flow cytometry on a BD FACS caliber machine (BD Biosciences). All data were analyzed using FlowJo software (https://www.flowjo.com).
Particularly, each cell line prepared in Experimental Methods 1 and 4 was harvested and processed using FITC-Annexin V Apoptosis Detection Kit I (BD Biosciences, San Jose, CA, USA) and propidium iodide DNA staining protocol. Apoptosis and cell cycle were analyzed by flow cytometry on a BD FACS caliber machine (BD Biosciences). All data were analyzed using FlowJo software (https://www.flowjo.com).

[2] = system: PANC1 pancreatic cancer cell line; details: administered simultaneously with adenovirus expressing Runx3 protein, FIG. 8
Description: as §1

p300-RUNX3 complex = details: treatment with MEK1 inhibitor (1 μM per methods); FIG. 3a
Description: Transient transfection was performed in all cell lines using lipofectamine plus reagent and lipofectamine (Invitrogen). Cell lysates were incubated with an appropriate monoclonal or polyclonal antibody (2 μg of antibody/500 μg of lysate sample) at 4° C. for 3 hours, followed by incubation with protein G-Sepharose beads (Amersham Pharmacia Biotech, Piscataway, NJ, USA). For the detection of endogenous proteins at 4° C. for 1 hour, the lysate was incubated with an appropriate monoclonal or polyclonal antibody (1:1000˜1:3000) at 4° C. for 6 to 12 hours, and then protein G-Sepharose beads (Amersham Pharmacia Biotech) were heated at 4° C. for 3 hours. The immune precipitate was digested on an SDS-polyacrylamide gel electrophoresis (SDS-PAGE) gel and transferred to a PVDF membrane (Millipore, Billerica, MA, USA). The membrane was blocked, immunoblotted with an appropriate antibody, treated with ECL solution (Amersham Pharmacia Biotech), and visualized in Amersham™ Imager 600 (GE Healthcare, Chicago, IL, USA).
Before serum starvation, a knockdown assay was performed by transfecting HEK293 cells with 50 nM siRNA using RNAiMAX (Invitrogen, CA, USA). Cells were harvested at the designated time points after serum stimulation. […] HDAC4 siRNA was purchased from Cell Signaling Technology.

ARF = test: time-dependent expression of ARF after serum stimulation, immunoblotting (IB); assay type: cell-based; details: suppression of mTOR using rapamycin (100 nM per methods); FIG. 3h
Excerpt: HDAC4 siRNA was purchased from Cell Signaling Technology.

Row | SMILES | physical binding between Runx3 and Brd2 8 hours after serum stimulation (Runx3-BRD2 complex; CDK4 inhibitor at 1 nM) | time for which the binding of Runx3 and BRD2 was maintained (Runx3-BRD2 complex; CDK4 inhibitor present at 11 nM, FIG. 5) | toxicity to normal cells (normal cells; concentration of 11 nM) | cancer apoptotic effect versus adenovirus expressing Runx3 protein alone [1] | cancer apoptotic effect versus adenovirus expressing Runx3 protein alone [2] | binding of BRD2-RUNX3 (Runx3-BRD2 complex; treatment with MEK1 inhibitor (1 μM per methods), FIG. 3a) | binding of p300-RUNX3 (p300-RUNX3 complex) | time for which the binding of Runx3 and BRD2 was maintained (Runx3-BRD2 complex; mTOR inhibitor present at 100 nM, FIG. 6) | maintenance of Rpa-RX3-AC (Runx3-BRD2 complex; suppression of mTOR using rapamycin (100 nM per methods), FIG. 3h) | time to which the expression of ARF was extended (ARF) | cytotoxicity to normal cells (normal cells; concentration of 100 nM)
1 | CC(=O)c1c(C)c2cnc(Nc3ccc(N4CCNCC4)cn3)nc2n(C2CCCC2)c1=O [PD0332991] | not observed | up to 8 hours | non-toxic | significantly increased | significantly increased |  |  |  |  |  | 
2 | N#CC(=C(/N)Sc1ccccc1N)/C(C#N)=C(\N)Sc1ccccc1N [U0126] |  |  |  |  |  | inhibited | inhibited |  |  |  | 
3 | CO[C@H]1C[C@@H]2CC[C@@H](C)[C@@](O)(O2)C(=O)C(=O)N2CCCC[C@H]2C(=O)O[C@H]([C@H](C)C[C@@H]2CC[C@@H](O)[C@H](OC)C2)CC(=O)[C@H](C)/C=C(\C)[C@@H](O)[C@@H](OC)C(=O)[C@H](C)C[C@H](C)/C=C/C=C/C=C/1C [rapamycin] |  |  |  | significantly increased | significantly increased |  |  | up to 8 hours | maintained | up to 8 hours | non-cytotoxic
